From BindingDB's records for doi:10.1021/jm960054c (Merck Research Laboratories, 1996)

Target: Growth hormone secretagogue receptor type 1 (Sus scrofa)
Experiment: Binding Affinity against Growth hormone secretagogue receptor of swine using [35S]MK-0677 as radioligand

Row | Ki [nM] | Compound
1 | 63 | CC(C)(N)CC(=O)N[C@@H]1CCc2ccccc2N(Cc2ccc(-c3ccccc3-c3nnn[nH]3)cc2)C1=O [3-Amino-3-methyl-N-{2-oxo-1-[2'-(1H-tetrazol-5-yl)-biphenyl-4-ylmethyl]-2,3,4,5-tetrahydro-1H-benzo[b]azepin-3-yl}-butyramide]
2 | > 5000 | CC(C)(N)CC(=O)N[C@H]1CCc2ccccc2N(Cc2ccc(-c3ccccc3-c3nnn[nH]3)cc2)C1=O [3-Amino-3-methyl-N-{(S)-2-oxo-1-[2'-(1H-tetrazol-5-yl)-biphenyl-4-ylmethyl]-2,3,4,5-tetrahydro-1H-benzo[b]azepin-3-yl}-butyramide]
